Source: article PMC6315694, “Synthesis of Pseudellone Analogs and Characterization as Novel T-type Calcium Channel Blockers” (Marine Drugs, 2018)
Where two headings read alike, the source gives them in different places.

Experiments:
[1] = tested on: L-type calcium channel (CaV1); assay: HVA calcium channel FLIPR assay, L-type (SH-SY5Y cells); format: cell-based, human; settings: 1 µM CVID present, N = 3, mean ± SEM, read-out: IC50 CaV1 (HVA CaVs)
Method: (§1) The human embryonic kidney 293 (HEK 293) cell lines (from Emmanuel Bourinet, Montpellier, France) stably expressing CaV3.2 or CaV3.3 were cultured under 5% carbon dioxide at 37 °C in Dulbecco’s Modified Eagle Medium (DMEM) Glutamax (Gibco, Life Technologies, Carlsbad, CA, USA) supplemented with 10% (v/v) fetal bovine serum (FBS), 100 U/mL penicillin, 100 μg/mL streptomycin (Gibco, Life Technologies), and 750 μg/mL geneticin (G418) (Gibco, Life Technologies). The Chinese Hamster Ovary (CHO) cell lines (Emmanuel Bourinet, Montpellier, France) expressing CaV3.1 were cultured under 5% carbon dioxide at 37 °C in Alpha Minimum Essential Media (MEM) Glutamax (Gibco, Life Technologies), supplemented with 10% (v/v) fetal bovine serum (FBS) and 300 μg/mL geneticin (G418) (Gibco, Life Technologies). The human neuroblastoma SH-SY5 Y cells (Victor Diaz, Goettingen, Germany) were cultured under 5% carbon dioxide at 37 °C in RPMI 1640 antibiotic-free medium (Invitrogen, Carlsbad, CA, USA), supplemented with 15% FBS and 2 mM GlutaMAX™ (Invitrogen). D-PBS (Gibco, Life Technologies) was used to wash the cells, and 0.25% Trypsin-EDTA (Gibco, Life Technologies) was used to detach cells from the flask surface. They were split in a ratio of 1:5 (ideally 1000 cells/cm^2) when they reached 70%–80% confluence (every 2–3 days). Transiently transfected CaV3.1HEK293 T cells were used in FLIPR Assays. HEK 293 T cells were cultured under 5% carbon dioxide at 37 °C in DMEM supplemented with 10% (v/v) FBS. D-PBS was used to wash the cells, and 0.25% Trypsin-EDTA was used to detach cells from the flask surface. The cells were split and seeded at 6 million cells per T175 flask, to reach 70%–80% confluence after 24 h. The next day, 12 μg DNA of human CaV3.1 was incubated in 900 μL serum-free DMEM with 36 μL FuGENE HD transfection reagent (Promega Corporation, Madison, WI, US) (1:3 DNA/Fugene ratio) for 20 min, and then the mixture was added into the cell flask slowly, drop by drop. After the transfection, the cells were cultured under 5% carbon dioxide at 37 °C for 24 h and then moved to a 28 °C incubator.
SH-SY5Y cells were seeded into 384-well black wall clear bottom plates at a density of 15,000 cells per well, resulting in 90%–95% confluence after 24 h. […] The fluorescence readings were recorded and converted as described previously, and agonist containing 90 mM KCl + 5 mM CaCl2 was used in the second addition.
Data were plotted and analyzed using GraphPad Prism v7.0 (GraphPad Software Inc., San Diego, CA, USA). […]

[2] = target: CaV3.2 (Homo sapiens, UniProt O95180); assay: T-type calcium channel window current FLIPR assay, CaV3.2; format: cell-based
Method: as §1
HEK 293 cells stably expressing CaV3.2 or CaV3.3 were seeded into 384-well black wall clear bottom plates (Corning, Lowell, MA, USA) at a density of 30,000 cells per well. Transiently transfected CaV3.1HEK293 T cells were seeded into 384-well black wall clear bottom plates at a density of 60,000 cells per well. Once the cells reached 90%–95% confluence after 24 h, the media were removed from the wells and replaced with 20 μL of 10% calcium 4 dye (Molecular Devices, Sunnyvale, CA, USA) in HBSS-HEPES (containing 5 mM KCl, 10 mM HEPES, 140 mM NaCl, 10 mM glucose, and 0.5 mM CaCl2, pH 7.4) with 0.1% bovine serum albumin (BSA). The cells were incubated for 30 min at 37 °C in the presence of 5% carbon dioxide. Each well on the reagent plates for the first addition contained 15 μL different concentrations of compounds dissolved in HBSS-HEPES containing 0.1% BSA and <0.1% DMSO and was incubated for 20 min after loading. Positive and negative controls contained 15 μL of HBSS-HEPES (0.1% BSA) alone. The plates were placed in the FLIPR^TETRA (Molecular Devices, Sunnyvale, CA, USA) programmed to measure maximum fluorescence intensity following a second addition of the agonist 5 mM CaCl2. The data acquisition parameters were adjusted as follows: Baseline fluorescence of 1500–2000 arbitrary fluorescence units (AFU), emission wavelength of 515–575 nm, and excitation wavelength of 470–495 nm. HBSS-HEPES (0.1% BSA) was used in the second addition as a negative control. One fluorescence reading was taken before the second addition. Then the fluorescence readings were recorded every two seconds for 300 s. Raw fluorescence readings in the form of relative light units were converted to response over baseline using ScreenWorks® (Molecular Devices, version 3.2.0.14) software.
Data were plotted and analyzed using GraphPad Prism v7.0 (GraphPad Software Inc., San Diego, CA, USA).

Chain of CaV3.2 (O95180 whole entry): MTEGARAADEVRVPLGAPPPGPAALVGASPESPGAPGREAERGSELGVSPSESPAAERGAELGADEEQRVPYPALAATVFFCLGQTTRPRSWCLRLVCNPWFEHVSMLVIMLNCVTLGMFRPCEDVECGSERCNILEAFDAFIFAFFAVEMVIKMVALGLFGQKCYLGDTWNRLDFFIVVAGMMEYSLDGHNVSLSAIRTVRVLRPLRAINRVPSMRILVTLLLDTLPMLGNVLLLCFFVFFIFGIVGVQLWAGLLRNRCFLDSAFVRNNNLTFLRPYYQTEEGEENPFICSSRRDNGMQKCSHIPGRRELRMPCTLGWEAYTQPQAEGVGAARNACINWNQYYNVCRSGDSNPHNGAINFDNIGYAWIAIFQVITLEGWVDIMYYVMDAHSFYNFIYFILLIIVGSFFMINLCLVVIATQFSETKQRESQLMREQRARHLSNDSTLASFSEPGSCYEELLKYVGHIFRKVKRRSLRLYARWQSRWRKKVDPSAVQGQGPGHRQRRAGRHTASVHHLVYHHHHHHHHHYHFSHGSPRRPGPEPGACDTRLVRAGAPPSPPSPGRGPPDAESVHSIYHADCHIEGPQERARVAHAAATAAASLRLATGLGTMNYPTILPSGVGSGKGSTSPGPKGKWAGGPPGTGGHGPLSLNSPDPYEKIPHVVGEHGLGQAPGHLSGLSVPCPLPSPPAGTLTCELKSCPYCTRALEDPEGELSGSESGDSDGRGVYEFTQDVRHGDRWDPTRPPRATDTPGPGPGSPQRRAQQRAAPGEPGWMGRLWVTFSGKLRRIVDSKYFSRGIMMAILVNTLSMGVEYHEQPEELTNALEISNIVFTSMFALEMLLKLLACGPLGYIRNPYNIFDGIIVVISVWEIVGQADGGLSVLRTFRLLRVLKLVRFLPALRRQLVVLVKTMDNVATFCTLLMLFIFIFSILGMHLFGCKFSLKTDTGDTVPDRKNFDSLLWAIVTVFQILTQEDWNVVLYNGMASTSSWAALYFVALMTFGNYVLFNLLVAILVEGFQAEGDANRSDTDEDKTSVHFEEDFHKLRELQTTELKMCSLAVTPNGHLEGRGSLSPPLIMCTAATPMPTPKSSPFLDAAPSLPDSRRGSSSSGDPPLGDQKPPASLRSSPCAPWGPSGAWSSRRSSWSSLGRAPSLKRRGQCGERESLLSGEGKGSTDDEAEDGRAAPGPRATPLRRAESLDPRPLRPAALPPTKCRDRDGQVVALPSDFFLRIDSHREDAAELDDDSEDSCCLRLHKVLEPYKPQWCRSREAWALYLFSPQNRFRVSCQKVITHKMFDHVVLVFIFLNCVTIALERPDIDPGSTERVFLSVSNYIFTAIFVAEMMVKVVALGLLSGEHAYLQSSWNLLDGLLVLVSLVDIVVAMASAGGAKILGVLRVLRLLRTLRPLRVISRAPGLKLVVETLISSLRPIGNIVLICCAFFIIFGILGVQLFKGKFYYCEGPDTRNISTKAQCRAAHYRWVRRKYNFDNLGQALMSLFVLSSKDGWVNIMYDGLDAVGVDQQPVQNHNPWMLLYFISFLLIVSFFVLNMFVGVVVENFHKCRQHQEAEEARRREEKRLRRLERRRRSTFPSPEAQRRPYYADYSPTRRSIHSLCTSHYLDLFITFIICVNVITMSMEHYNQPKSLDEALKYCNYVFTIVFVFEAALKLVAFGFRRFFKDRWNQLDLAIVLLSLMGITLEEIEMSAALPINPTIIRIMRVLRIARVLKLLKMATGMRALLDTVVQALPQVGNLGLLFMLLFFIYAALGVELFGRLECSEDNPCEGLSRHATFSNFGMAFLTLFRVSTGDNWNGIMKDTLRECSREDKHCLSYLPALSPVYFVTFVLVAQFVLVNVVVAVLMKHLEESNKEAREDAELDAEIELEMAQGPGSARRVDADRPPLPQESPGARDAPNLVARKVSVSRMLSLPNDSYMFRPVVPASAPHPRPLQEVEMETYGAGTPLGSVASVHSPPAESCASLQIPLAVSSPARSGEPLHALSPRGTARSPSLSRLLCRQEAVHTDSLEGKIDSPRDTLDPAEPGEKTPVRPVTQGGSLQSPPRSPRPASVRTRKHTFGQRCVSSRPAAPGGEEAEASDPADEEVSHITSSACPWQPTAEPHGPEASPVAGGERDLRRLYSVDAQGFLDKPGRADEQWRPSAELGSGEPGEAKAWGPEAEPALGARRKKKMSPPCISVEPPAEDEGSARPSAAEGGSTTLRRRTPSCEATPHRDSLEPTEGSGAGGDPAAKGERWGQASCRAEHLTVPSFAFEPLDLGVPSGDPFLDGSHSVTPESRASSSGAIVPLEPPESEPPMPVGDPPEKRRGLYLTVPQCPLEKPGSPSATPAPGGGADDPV

- IC50 [1]: 39.8 ± 3.98 µM
- Kind of block of the CaV3.2 window current, in words ([2]; FLIPR): potent partial blocking
- IC50 ([2]; FLIPR window current assay, HEK 293 stable, N = 3, mean ± SEM, read-out: IC50 CaV3.2 (LVA CaVs)): 6.59 ± 0.66 µM
- Emax ([2]; FLIPR, n = 3, read-out: Emax, inhibition for CaV3.2): 56.9%
- IC50 ([2]; FLIPR, representative curve, n = 4, read-out: IC50 of the representative concentration-response curve, CaV3.2 window current): 5.77 µM
SMILES: COC(=O)[C@H](Cc1c[nH]c2ccccc12)NC(=O)C(C)(c1c[nH]c2ccccc12)c1c[nH]c2ccccc12 [Compound 3, Methyl (2,2-di(1H-indol-3-yl)propanoyl)-L-tryptophanate]
